Assay: xn = mol fraction of the nth substance listed
Conditions: for surface tension liquid-gas: Pendant drop shape; for mass density: 101 kPa, Liquid

CCCOC(C)=O [propyl ethanoate] + Cc1ccc(C)cc1
Conditions	mass density [kg/m3]	surface tension liquid-gas [mN/m]
298.15 K, x1 = 0.1	859.6	27.56
298.15 K, x1 = 0.1995	862.22	27.04
298.15 K, x1 = 0.2981	864.8	26.54
298.15 K, x1 = 0.3986	867.38	26.05
298.15 K, x1 = 0.4993	869.95	25.61
298.15 K, x1 = 0.6002	872.51	25.23
298.15 K, x1 = 0.6991	875	24.89
298.15 K, x1 = 0.7993	877.52	24.56
298.15 K, x1 = 0.8999	880.05	24.23
298.15 K, x1 = 1	882.54	23.91
303.15 K, x1 = 0.0994	855.13	26.98
303.15 K, x1 = 0.1992	857.64	26.48
303.15 K, x1 = 0.2992	860.13	25.99
303.15 K, x1 = 0.3991	862.58	25.52
303.15 K, x1 = 0.5009	865.05	25.1
303.15 K, x1 = 0.5998	867.44	24.76
303.15 K, x1 = 0.6999	869.84	24.43
303.15 K, x1 = 0.8009	872.26	24.1
303.15 K, x1 = 0.8997	874.63	23.78
303.15 K, x1 = 1	876.99	23.46
308.15 K, x1 = 0.1001	850.7	26.61
308.15 K, x1 = 0.1999	853.09	26.09
308.15 K, x1 = 0.2992	855.43	25.57
308.15 K, x1 = 0.4001	857.77	25.06
308.15 K, x1 = 0.4996	860.06	24.62
308.15 K, x1 = 0.6	862.35	24.23
308.15 K, x1 = 0.6996	864.61	23.87
308.15 K, x1 = 0.8003	866.88	23.51
308.15 K, x1 = 0.9002	869.14	23.15
308.15 K, x1 = 1	871.35	22.79
